Measured values as given in patent US7888390B2, “Preparation of platinum(II) complexes” (Platco Technologies (Proprietary) Limited, priority 2003, dated 2011).

What was measured:
Assay type in all cases: cell-based
colon cancer cells = assay: Anticancer testing, inhibition of colon cancer cells, medium containing 10 mM glutathione; details: 100 μM
breast cancer = assay: Anticancer testing, inhibition on breast cancer, medium containing 10 mM glutathione; details: 100 μM solution
cervical cancer cells = assay: Anticancer testing, inhibition of cervical cancer cells, 5% foetal calf serum medium; details: 5% foetal calf serum as medium

CSCCCc1nccn1C.O=C([O-])C(=O)[O-].[Pt+2] [Example 6, oxalato(1-methyl-2-methylthiopropylimidazole)platinum(II)]
inhibition of colon cancer cells (colon cancer cells): 85%
inhibition on breast cancer (breast cancer): 72%
percentage inhibition on cervical cancer cells (cervical cancer cells; 10 μM solution): 88.6%
percentage inhibition on cervical cancer cells (cervical cancer cells; 100 μM solution): 97.7%

N.N.[Cl][Pt][Cl] [cisplatin]
inhibition of colon cancer cells (colon cancer cells): 48%
inhibition on breast cancer (breast cancer): 10%
percentage inhibition on cervical cancer cells (cervical cancer cells; 10 μM solution): 85.4%
percentage inhibition on cervical cancer cells (cervical cancer cells; 100 μM solution): 95.3%
